Measured values published in PubChem BioAssay (NCI).
Values joined by “and” are separate entries in the source; they are usually repeats but may differ in a detail not shown here. Identical values can stand only once.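 The compound was tested at five concentrations on cells cultured in 96-well plates, with a 48-hour exposure period. GI50 marks 50% less growth. TGI: total growth inhibition.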

Experiments:
Assay in all cases: inhibition of tumour cell growth, NCI panel, 48 h
SK-MEL-28 melanoma = test system: SK-MEL-28 melanoma
A549 NSCLC = test system: A549 NSCLC
SK-OV-3 ovarian = test system: SK-OV-3 ovarian
HOP-92 NSCLC = test system: HOP-92 NSCLC
UACC-257 melanoma = test system: UACC-257 melanoma
CCRF-CEM leukemia = test system: CCRF-CEM leukemia
NCI-H226 lung = test system: NCI-H226 lung
SF-295 CNS = test system: SF-295 CNS
K-562 leukemia = test system: K-562 leukemia
UO-31 renal = test system: UO-31 renal

Structure (SMILES)	GI50 (SK-MEL-28 melanoma)	TGI (SK-MEL-28 melanoma) [µM]	TGI (A549 NSCLC) [µM]	TGI (SK-OV-3 ovarian) [µM]	TGI (HOP-92 NSCLC) [µM]	TGI (UACC-257 melanoma) [µM]	TGI (CCRF-CEM leukemia) [µM]	TGI (NCI-H226 lung) [µM]	TGI (SF-295 CNS) [µM]	GI50 (K-562 leukemia) [µM]	TGI (K-562 leukemia) [µM]	TGI (UO-31 renal) [µM]	GI50 (A549 NSCLC) [µM]	GI50 (SK-OV-3 ovarian) [µM]	GI50 (HOP-92 NSCLC) [µM]	GI50 (UACC-257 melanoma) [µM]	GI50 (CCRF-CEM leukemia) [µM]	GI50 (NCI-H226 lung) [µM]	GI50 (SF-295 CNS) [µM]	GI50 (UO-31 renal) [µM]
COc1ccc(/C=C2/N=C(N/N=C\C(O)C(O)C(O)CO)NC2=O)cc1 (configuration not stated)	> 100 µM and 31.3 µM	> 100	> 100	> 100	> 100	> 100	> 100	> 100	> 100	33	> 100	> 100								
N/C(=N\N=C\c1cc2ccccc2s1)c1cnccn1		> 100	> 100	> 100	> 100	> 100	> 100	> 100	> 100		> 100	> 100								
Cc1cc(OCc2nc(N)nc(N)c2-c2ccc(Cl)c(Cl)c2)ccc1[N+](=O)[O-]		40.8	> 100	> 63.3	> 60	3.28	2.27	28.6	4.72		> 100	30.5								
Cc1ccc(S(=O)(=O)NC(=O)Nc2c(S(N)(=O)=O)cc(S(N)(=O)=O)c(Cl)c2Cl)cc1		> 100	> 100	> 100	> 100	> 100	> 100	> 100	> 100		> 100	> 100								
O=S(=O)(O)c1ccc2c(N=Nc3cccc4ccccc34)c(O)ccc2c1		> 100	> 100	> 100	> 100	> 100	> 100	> 100	> 100		> 100	> 100								
O=c1oc2cc(O)ccc2c2[nH]c3cc(O)ccc3c12		> 100	> 100	63.1	95.4	> 100	> 100	78	> 100		> 100	97.5								
COc1ccccc1C1C2=C(COC2=O)Oc2cc3c(cc21)OCO3 (configuration not stated)		> 76	> 100	45.9	97.7	> 100	16.8	> 100	12.6		> 100	> 33.5								
CC1CC(=O)Nc2ccc(Cl)cc2N1C(=O)CN1CCC(CCCCN(C)C)CC1 (configuration not stated)		> 100	> 100	> 100	> 100	> 100	> 100	> 100	> 100		> 100	> 100								
Oc1ccc(-c2c3ccccc3c(-c3ccc(O)cc3)c3ccccc23)cc1		> 100	> 100	> 100	> 100	> 100	> 100	> 100	> 100		> 100	> 100								
Cc1cccc2c(N)c3cccc(C(=O)NCC[N+](C)(C)Cc4ccc([N+](=O)[O-])n4C)c3nc12		> 100	> 52.2	> 78	> 100	> 80.9	41.8	53.3	> 89.3		> 31.6	74.7								
CC(=O)Nc1ccc(NC(=O)CC(=O)Nc2ccc(NC(C)=O)cc2)cc1		> 100	> 100	65.9	> 100	> 100	> 100	> 100	> 100		> 100	> 100								
O=c1oc2ccc([N+](=O)[O-])cc2nc1/C=C(\O)c1ccccc1		> 100	> 100	> 100	> 100	> 100	> 100	> 100	> 100		> 100	> 100								
OC1(c2ccccc2)CC2CCC(C1)N2CCCC(O)(c1ccccc1)c1ccccc1 (configuration not stated)		32.9	34.4	28.1	18.9	4	30.8	29	10.6		37.8	20.2								
CN(C(=O)[C@H](NC(=O)OCc1ccccc1)c1ccccc1)C1CCCCC1N1CCCC1 (some centres not stated)		> 100	> 100	> 100	> 100	63.2	> 100	78	> 100		> 100	> 100								
C=C1C(=O)OC2C1CCC(=C)C1CC(O)C(=C)C12 (configuration not stated)		32	55.7	> 100	11.3	27.2	7.44	> 63.1	> 100		21.4	29.5								
CCOC(=O)/C=C/n1c2ccccc2c(=O)c2cc(OC)ccc21		> 100	> 100	> 100	> 100	> 100	> 100	> 100	> 100		> 100	> 100								
COc1ccccc1N1CCN(CCCCNC(=O)c2ccc([N+](=O)[O-])o2)CC1		> 100	19.5	56.7	40.4	13.2	58.2	29.4	25.7		> 60.5	23.2								
CC12NC(=C(C#N)C#N)C(C#N)=C3NC(N)=C(C#N)C(=C31)Oc1ccccc12 (configuration not stated)		> 100	> 100	> 100	> 74.1	> 100	> 100	> 100	> 100		> 100	> 100								
CC1(CO)C(O)CCC2(C)C1CCC1CC3CC12CCC3(O)CO (configuration not stated)		> 100	> 100	> 100	> 100	> 100	> 100	> 89.8	> 100		> 100	98.8								

Structure (SMILES)	GI50 (SK-MEL-28 melanoma)	TGI (SK-MEL-28 melanoma) [µM]	TGI (A549 NSCLC) [µM]	TGI (SK-OV-3 ovarian) [µM]	TGI (HOP-92 NSCLC) [µM]	TGI (UACC-257 melanoma) [µM]	TGI (CCRF-CEM leukemia) [µM]	TGI (NCI-H226 lung) [µM]	TGI (SF-295 CNS) [µM]	GI50 (K-562 leukemia) [µM]	TGI (K-562 leukemia) [µM]	TGI (UO-31 renal) [µM]	GI50 (A549 NSCLC) [µM]	GI50 (SK-OV-3 ovarian) [µM]	GI50 (HOP-92 NSCLC) [µM]	GI50 (UACC-257 melanoma) [µM]	GI50 (CCRF-CEM leukemia) [µM]	GI50 (NCI-H226 lung) [µM]	GI50 (SF-295 CNS) [µM]	GI50 (UO-31 renal) [µM]
c1ccc2c(c1)nnn2CNc1ccc(N2CCCCC2)cc1		> 100	> 100	> 100	> 100	> 100	> 100	> 100	> 100		> 100	> 100								
CC(=O)Nc1ccc(-c2nnc(SCC(=O)Nc3cccc(C)c3)o2)cc1		28.6	68.6	81.5	26.2	24.9	> 100	30.8	22.9		> 100	26.3								
CCCNC1=C2C[C@@H](C)C[C@@H](OC)[C@@H](OC(=O)CCCN)[C@H](C)/C=C(\C)[C@@H](OC(N)=O)[C@H](OC)/C=C\C=C(/C)C(=O)NC(=CC1=O)C2=O		36.1	40.6	32.4	25.8	12	6.8	39.8	36.8		> 20.9	36.1								
COC(=O)C1OC(O[C@H]2CC[C@]3(C)[C@H]4CC=C5[C@@H]6CC(C)(C)CC[C@]6(C(=O)OC)CC[C@@]5(C)[C@]4(C)CC[C@H]3C2(C)C)C(O)C(O)C1O (some centres not stated)		32.7	22.5	34.8	34.7	35.4	23.2	37	28.7		46.3	33.4								
c1ccc(CN2CCC(=NN3CCCCC3)CC2)cc1		> 100	> 100	> 100	> 100	> 100	> 100	> 100	> 100		> 100	> 100								
C1=N[C@]23C(=N[C@H](N=C2NCc2ccco2)[C@]24N=CNC2=N[C@H]3N=C4NCc2ccco2)N1	> 100 µM	> 100	> 100	> 100	> 100	> 100	> 100	> 100	> 100	> 100	> 100	> 100	> 100	> 100	5.34	> 100	> 100	65.4	> 100	> 100
O=[N+]([O-])c1cc(Br)cc2cc(Cl)cnc12		> 100	> 100	> 100	6.36	> 100	> 100	> 100	> 100		> 100	> 100								
Cc1ccc(S(=O)(=O)NC(=O)C2S(=O)(=O)OCCOS2(=O)=O)cc1		> 100	> 100	> 100	> 100	> 100	> 100	> 100	> 100		> 100	> 100								
O=C(Nc1ccccc1)c1cc2ccccc2c(N=Nc2cccc([N+](=O)[O-])c2)c1O		> 100	> 100	> 100	> 100	> 100	> 100	> 100	> 100		> 100	> 100								
O=C(Nc1ccccc1[N+](=O)[O-])/C(=N/Nc1cccc(Cl)c1)c1c(O)c2ccccc2oc1=O		> 100	> 100	> 100	96.5	> 100	87.5	> 100	> 100		> 100	> 100								
CC(C)C[S+]1C2=C([O-])CC(C)(C)CC2=Nc2ccccc21 (configuration not stated)		> 100	> 100	> 100	> 100	> 100	> 100	> 100	> 100		> 100	> 100								
CCOC(=O)/C(Br)=C1\OC(=O)c2ccccc2-c2ccccc21		> 100	> 100	> 100	79.9	> 100	67.7	86.1	> 100		> 100	> 100								
Cc1cc(N(CCC#N)S(=O)(=O)c2ccccc2)ccc1C=Nc1cccc(C(=O)O)c1		> 100	> 100	> 100	> 100	> 100	> 100	> 100	> 100		> 100	> 100								
COc1ccc(C=Nc2ccc(-c3nc4ccccc4s3)cc2)cc1OC		> 100	> 100	> 100	53.5	61	55	85.4	55.5		> 100	> 100								
O=C1CC(c2ccc(Cl)cc2)C2(C(=O)NC(=S)NC2=O)C(c2ccc(Cl)cc2)C1 (configuration not stated)		30.6	73	29	40.3	37.6	75.4	66.9	35.9		74.1	48.9								
CC(=O)O[C@@H]1[C@H](OC2CCCCC2(c2ccccc2)c2ccccc2)O[N+]([O-])=CC12CCCCC2 (some centres not stated)		27	31.6	26.2	59.2	32	15.7	27.8	29.2		> 100	31.3								
C[C@@H]1C[C@H]2OC(=O)[C@@]3(C)CCC[C@@](C)([C@@H]23)[C@@]1(O)CCc1ccoc1		> 100	> 100	> 100	> 100	> 100	> 100	> 100	> 100		> 100	> 100								
Nc1nc(Cl)cc(NCC2(CO)CCCCC2)n1		> 100	> 100	> 100	> 100	> 100	> 100	> 100	> 100		> 100	> 100								
Cc1ccc(Nc2c3c(c(C#N)c4nc5ccccc5n24)CCCC3)cc1		55.6	> 100	> 100	76.2	55	31.6	62	44.1		> 100	65.6								
